According to patent publication US11382956B2, “Amylin analogues” (Zealand Pharma A/S, priority 2016, dated 2022):
Numbered stars: 1 amine (or outer) side, 2 acyl side, 3 side chain; on linkers, the order of the positions; unused ones are H or OH. Bridge positions count the residues as written; N and C are the ends. Square brackets hold non-standard residues; d marks the D form. Peptide text beside a SMILES is read from it. * marks the point of attachment. C20 diacid = O=C(O)CCCCCCCCCCCCCCCCCCC(=O)*; γGlu = O=C(O)[C@H](CCC(=O)[*:2])N[*:1]; Hyp = O=C(O)[C@@H]1C[C@@H](O)CN1; NMeI = CC[C@H](C)[C@H](NC)C(=O)O; Aad = N[C@@H](CCCC(=O)O)C(=O)O; Orn = NCCC[C@H](N)C(=O)O; Sar = CNCC(=O)O

Assays:
[1] = molecular target: T1, recombinant human calcitonin receptor (hCT-R) (Homo sapiens, UniProt P30988); experiment: hCT-R cAMP assay (AlphaScreen) in 1321N1 cells; format: cell-based; conditions: cAMP formation, 45 min stimulation
T1 construct: host or cells: human astrocytoma cell line 1321N1
T1 sequence (P30988 25-474): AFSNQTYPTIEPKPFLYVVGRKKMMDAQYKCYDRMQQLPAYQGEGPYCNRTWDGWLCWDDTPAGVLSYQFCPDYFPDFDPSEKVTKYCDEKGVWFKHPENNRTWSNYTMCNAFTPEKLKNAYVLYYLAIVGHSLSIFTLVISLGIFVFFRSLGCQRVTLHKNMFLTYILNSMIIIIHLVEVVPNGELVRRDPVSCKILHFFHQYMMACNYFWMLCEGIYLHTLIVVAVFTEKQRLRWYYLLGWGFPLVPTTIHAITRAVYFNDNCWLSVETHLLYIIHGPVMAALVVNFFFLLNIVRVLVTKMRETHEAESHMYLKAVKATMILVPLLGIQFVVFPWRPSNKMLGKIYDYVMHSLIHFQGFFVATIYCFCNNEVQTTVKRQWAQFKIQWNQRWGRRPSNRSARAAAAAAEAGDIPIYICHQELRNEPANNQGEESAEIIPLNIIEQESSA
Text: (§1) For the assessment of the in vitro activity of test peptides, cell lines expressing recombinant human calcitonin receptor (hCT-R) or recombinant human amylin 3 receptor (hAMYR3) in the background of the human astrocytoma cell line 1321N1 were purchased from DiscoveRx Corporation (Cat. No. 95-016106 and 95-0166C6). The hAMYR3 is a hetero-oligomer of the calcitonin receptor (Isoform 2; Gene ID 799) and RAMPS (Gene ID 10268) that forms when both genes are expressed in the same cell. The hCT-R cell line expresses only the recombinant human calcitonin receptor gene (Isoform 2; Gene ID 799). Upon activation of hCT-R or hAMYR3 by the test peptides the formation of cAMP is induced and was measured using the AlphaScreen® cAMP Assay kit from Perkin-Elmer (Cat. No. 6760635R).
(§2) Briefly, 1321N1 cells expressing hCT-R or hAMYR3 were seeded in 384-well microtiter plates (Falcon Optilux White, Cat.-No. 10448642) at 5,000 cells in […] growth medium per well (AssayComplete 1321N1 Cell Culture Kit, DiscoveRx Corp.), and incubated for 24 h at 37° C., 5% CO2. On the day of analysis growth medium was removed and the cells were stimulated by adding 10 μL of stimulation buffer (10 […], 0.1% BSA) containing increasing concentrations of test peptides, and incubation for 45 min at room temperature. The stimulation was stopped by adding 5.6 μL/well donor bead detection mix (5 mM Hepes pH7.4, 0.5% TWEEN 20, 0.1% BSA, 0.05 mg/mL donor beads, 62.5 nM biotinylated cAMP) and 4.5 μL/well acceptor bead solution (5 mM Hepes pH7.4, 0.5% TWEEN 20, 0.1% BSA, 0.05 mg/mL acceptor beads). After thorough mixing the plates were incubated in the dark for 1 h at room temperature and the cAMP content of the resulting cell lysates was estimated according to the AlphaScreen® cAMP Assay manufacturer's instructions. EC50 values were estimated by computer-aided curve fitting of results of at least 7 different compound concentrations.

[2] = molecular target: T2, recombinant human amylin 3 receptor (hAMYR3) (Homo sapiens, UniProt O60896+P30988); experiment: hAMYR3 cAMP assay (AlphaScreen) in 1321N1 cells; format: cell-based; conditions: cAMP formation, 45 min stimulation
T2 construct: host or cells: human astrocytoma cell line 1321N1
T2 sequence (P30988 25-474): T1 sequence (P30988 25-474)
T2 sequence (O60896 24-148 partner): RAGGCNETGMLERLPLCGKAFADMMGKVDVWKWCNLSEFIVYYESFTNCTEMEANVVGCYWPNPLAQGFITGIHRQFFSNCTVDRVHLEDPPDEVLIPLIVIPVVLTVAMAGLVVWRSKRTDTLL
Text: as §1, §2

Compound | EC50 [1] | EC50 [2]
CC[C@H](C)[C@@H](C(=O)N1CCC[C@H]1C(=O)N[C@@H](CO)C(=O)N[C@@H](CO)C(=O)N[C@H](C(=O)N[C@@H](CCC(=O)O)C(=O)N[C@H](C(=O)NCC(=O)N[C@@H](CO)C(=O)N[C@@H](CC(N)=O)C(=O)N[C@H](C(=O)N1C[C@H](O)C[C@H]1C(N)=O)[C@@H](C)O)C(C)C)[C@@H](C)O)N(C)C(=O)[C@H](C)NC(=O)CN(C)C(=O)[C@H](Cc1ccccc1)NC(=O)[C@@H](NC(=O)[C@@H](NC(=O)[C@H](CCCNC(=N)N)NC(=O)[C@H](CCC(N)=O)NC(=O)[C@H](CC(C)C)NC(=O)[C@H](Cc1ccccc1)NC(=O)[C@H](CCCC(=O)O)NC(=O)[C@H](C)NC(=O)[C@H](CC(C)C)NC(=O)[C@H](CCCNC(=N)N)NC(=O)[C@H](CCC(=O)O)NC(=O)[C@@H](NC(=O)[C@H](C)NC(=O)[C@@H]1CCCNC(=O)C[C@H](NC(=O)[C@H](CCCNC(=N)N)NC(=O)CC[C@H](NC(=O)CCCCCCCCCCCCCCCCCCC(=O)O)C(=O)O)C(=O)NCC(=O)N[C@@H]([C@@H](C)O)C(=O)N[C@@H](C)C(=O)N[C@@H]([C@@H](C)O)C(=O)N1)[C@@H](C)O)[C@@H](C)O)[C@@H](C)O [Compound 24, [19CD]-isoGlu-RD()GTAT-Orn()-ATERLA-Aad-FLQRTTF-Gly(Me)-A-Ile(Me)-PSSTEVGSNT-Hyp-NH2] ({C20 diacid-γGlu}-RDGTAT[Orn]ATERLA[Aad]FLQRTTF[Sar]A[NMeI]PSSTEVGSNT[Hyp]-NH2; lactam 2-7) | 0.038 nM | 0.013 nM
CC[C@H](C)[C@@H](C(=O)N[C@@H](CC(C)C)C(=O)N[C@@H](CO)C(=O)N[C@@H](CO)C(=O)N[C@H](C(=O)N[C@@H](CCC(=O)O)C(=O)N[C@H](C(=O)NCC(=O)N[C@@H](CO)C(=O)N[C@@H](CC(N)=O)C(=O)N[C@H](C(=O)N1C[C@H](O)C[C@H]1C(N)=O)[C@@H](C)O)C(C)C)[C@@H](C)O)N(C)C(=O)[C@H](C)NC(=O)CN(C)C(=O)[C@H](Cc1ccccc1)NC(=O)[C@H](C)NC(=O)[C@H](C)NC(=O)[C@H](CCCNC(=N)N)NC(=O)[C@H](CCC(N)=O)NC(=O)[C@H](CC(C)C)NC(=O)[C@H](Cc1ccccc1)NC(=O)[C@H](CCCC(=O)O)NC(=O)[C@H](C)NC(=O)[C@H](CC(C)C)NC(=O)[C@H](CCCNC(=N)N)NC(=O)[C@H](CCC(=O)O)NC(=O)[C@@H](NC(=O)[C@H](C)NC(=O)[C@@H]1CCCNC(=O)C[C@H](NC(=O)[C@H](CCCNC(=N)N)NC(=O)CC[C@H](NC(=O)CCCCCCCCCCCCCCCCCCC(=O)O)C(=O)O)C(=O)NCC(=O)N[C@@H]([C@@H](C)O)C(=O)N[C@@H](C)C(=O)N[C@@H]([C@@H](C)O)C(=O)N1)[C@@H](C)O [Compound 26, [19CD]-isoGlu-RD()GTAT-Orn()-ATERLA-Aad-FLQRAAF-Gly(Me)-A-Ile(Me)-LSSTEVGSNT-Hyp-NH2] ({C20 diacid-γGlu}-RDGTAT[Orn]ATERLA[Aad]FLQRAAF[Sar]A[NMeI]LSSTEVGSNT[Hyp]-NH2; lactam 2-7) | 0.769 nM | 0.12 nM

Continued, values first:

EC50 [1] | EC50 [2] | Compound
1.23 nM | 0.268 nM | CC[C@H](C)[C@@H](C(=O)N[C@@H](CC(C)C)C(=O)N[C@@H](CO)C(=O)N[C@@H](CO)C(=O)N[C@H](C(=O)N[C@@H](CCC(=O)O)C(=O)N[C@H](C(=O)NCC(=O)N[C@@H](CO)C(=O)N[C@@H](CC(N)=O)C(=O)N[C@H](C(=O)N1C[C@H](O)C[C@H]1C(N)=O)[C@@H](C)O)C(C)C)[C@@H](C)O)N(C)C(=O)[C@H](C)NC(=O)CN(C)C(=O)[C@H](Cc1ccccc1)NC(=O)[C@@H](NC(=O)CNC(=O)[C@H](CCCNC(=N)N)NC(=O)[C@H](CCC(N)=O)NC(=O)[C@H](CC(C)C)NC(=O)[C@H](Cc1ccccc1)NC(=O)[C@H](CCCC(=O)O)NC(=O)[C@H](C)NC(=O)[C@H](CC(C)C)NC(=O)[C@H](CCCNC(=N)N)NC(=O)[C@H](CCC(=O)O)NC(=O)[C@@H](NC(=O)[C@H](C)NC(=O)[C@@H]1CCCNC(=O)C[C@H](NC(=O)[C@H](CCCNC(=N)N)NC(=O)CC[C@H](NC(=O)CCCCCCCCCCCCCCCCCCC(=O)O)C(=O)O)C(=O)N[C@@H](CCC(N)=O)C(=O)N[C@@H]([C@@H](C)O)C(=O)N[C@@H](C)C(=O)N[C@@H]([C@@H](C)O)C(=O)N1)[C@@H](C)O)[C@@H](C)O [Compound 28, [19CD]-isoGlu-RD()QTAT-Orn()-ATERLA-Aad-FLQRGTF-Gly(Me)-A-Ile(Me)-LSSTEVGSNT-Hyp-NH2] ({C20 diacid-γGlu}-RDQTAT[Orn]ATERLA[Aad]FLQRGTF[Sar]A[NMeI]LSSTEVGSNT[Hyp]-NH2; lactam 2-7)
1.07 nM | 0.312 nM | CC[C@H](C)[C@@H](C(=O)N[C@@H](CC(C)C)C(=O)N[C@@H](CO)C(=O)N[C@@H](CO)C(=O)N[C@H](C(=O)N[C@@H](CCC(=O)O)C(=O)N[C@H](C(=O)NCC(=O)N[C@@H](CO)C(=O)N[C@@H](CC(N)=O)C(=O)N[C@H](C(=O)N1C[C@H](O)C[C@H]1C(N)=O)[C@@H](C)O)C(C)C)[C@@H](C)O)N(C)C(=O)[C@H](C)NC(=O)CN(C)C(=O)[C@H](Cc1ccccc1)NC(=O)[C@H](CO)NC(=O)[C@H](CO)NC(=O)[C@H](CCCNC(=N)N)NC(=O)[C@H](CCC(N)=O)NC(=O)[C@H](CC(C)C)NC(=O)[C@H](Cc1ccccc1)NC(=O)[C@H](CCCC(=O)O)NC(=O)[C@H](C)NC(=O)[C@H](CC(C)C)NC(=O)[C@H](CCCNC(=N)N)NC(=O)[C@H](CCC(=O)O)NC(=O)[C@@H](NC(=O)[C@H](C)NC(=O)[C@@H]1CCCCNC(=O)C[C@H](NC(=O)[C@H](CCCNC(=N)N)NC(=O)CC[C@H](NC(=O)CCCCCCCCCCCCCCCCCCC(=O)O)C(=O)O)C(=O)N2CCC[C@H]2C(=O)N[C@@H]([C@@H](C)O)C(=O)N[C@@H](C)C(=O)N[C@@H]([C@@H](C)O)C(=O)N1)[C@@H](C)O [Compound 29, [19CD]-isoGlu-RD()PTATK()ATERLA-Aad-FLQRSSF-Gly(Me)-A-Ile(Me)-LSSTEVGSNT-Hyp-NH2] ({C20 diacid-γGlu}-RDPTATKATERLA[Aad]FLQRSSF[Sar]A[NMeI]LSSTEVGSNT[Hyp]-NH2; lactam 2-7)
0.227 nM | 0.066 nM | CC[C@H](C)[C@@H](C(=O)N[C@@H](CC(C)C)C(=O)N[C@@H](CO)C(=O)N[C@@H](CO)C(=O)N[C@H](C(=O)N[C@@H](CCC(=O)O)C(=O)N[C@H](C(=O)NCC(=O)N[C@@H](CO)C(=O)N[C@@H](CC(N)=O)C(=O)N[C@H](C(=O)N1C[C@H](O)C[C@H]1C(N)=O)[C@@H](C)O)C(C)C)[C@@H](C)O)N(C)C(=O)[C@H](C)NC(=O)CN(C)C(=O)[C@H](Cc1ccccc1)NC(=O)[C@H](C)NC(=O)[C@H](C)NC(=O)[C@H](CCCNC(=N)N)NC(=O)[C@H](CCC(N)=O)NC(=O)[C@H](CC(C)C)NC(=O)[C@H](Cc1ccccc1)NC(=O)[C@H](CCCC(=O)O)NC(=O)[C@H](C)NC(=O)[C@H](CC(C)C)NC(=O)[C@H](CCCNC(=N)N)NC(=O)[C@H](CCC(=O)O)NC(=O)[C@@H](NC(=O)[C@H](C)NC(=O)[C@@H]1CCCCNC(=O)C[C@H](NC(=O)[C@H](CCCNC(=N)N)NC(=O)CC[C@H](NC(=O)CCCCCCCCCCCCCCCCCCC(=O)O)C(=O)O)C(=O)NCC(=O)N[C@@H]([C@@H](C)O)C(=O)N[C@@H](C)C(=O)N[C@@H]([C@@H](C)O)C(=O)N1)[C@@H](C)O [Compound 31, [19CD]-isoGlu-RD()GTATK()ATERLA-Aad-FLQRAAF-Gly(Me)-A-Ile(Me)-LSSTEVGSNT-Hyp-NH2] ({C20 diacid-γGlu}-RDGTATKATERLA[Aad]FLQRAAF[Sar]A[NMeI]LSSTEVGSNT[Hyp]-NH2; lactam 2-7)
